target: T1, CERT (Homo sapiens, UniProt Q9Y5P4); assay: Liposomal FRET CERT transfer assay (NBD-Cer/NR-Cer), 96-well; format: biochemical; conditions: dose-response
T1 construct: made in house; host or cells: E. coli BL21 (DE3), pET-28a(+)
T1 sequence (Q9Y5P4 1-598 isoform Q9Y5P4-2): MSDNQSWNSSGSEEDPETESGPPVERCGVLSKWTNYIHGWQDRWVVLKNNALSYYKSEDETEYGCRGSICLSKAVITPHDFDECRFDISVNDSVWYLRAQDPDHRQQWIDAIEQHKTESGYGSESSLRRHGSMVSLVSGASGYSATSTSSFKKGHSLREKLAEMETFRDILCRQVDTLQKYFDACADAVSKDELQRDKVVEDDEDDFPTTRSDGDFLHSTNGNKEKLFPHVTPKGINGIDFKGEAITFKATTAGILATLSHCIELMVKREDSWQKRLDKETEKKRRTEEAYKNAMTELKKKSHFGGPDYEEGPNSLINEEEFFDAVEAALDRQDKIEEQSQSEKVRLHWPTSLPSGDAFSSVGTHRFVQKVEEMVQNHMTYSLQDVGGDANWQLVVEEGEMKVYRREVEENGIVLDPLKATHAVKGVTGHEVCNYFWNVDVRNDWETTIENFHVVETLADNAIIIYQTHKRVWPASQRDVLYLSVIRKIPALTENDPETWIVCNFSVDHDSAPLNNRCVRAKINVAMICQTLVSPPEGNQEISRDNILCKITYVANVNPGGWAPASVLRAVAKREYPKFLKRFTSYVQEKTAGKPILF
From the text: 2. Assessment of CERT-transfer Activity
2.1 Reagents and materials
Egg phosphatidylcholine (PC) and egg phosphatidylethanolamine (PE) were purchased from Sigma. Fluorescence (nitrobenzoxadiazole (NBD), 7-Methoxycumarin-3-carboxylat (MCC), 9-Diethylamino-5-oxo-5H-benzo[a]phenoxazin-2-yl (NR)) labeled-ceramide, were chemically synthesized (section 5). (1R,3S) and (1R, 3R) -N-(3Hydroxy-1-hydroxymethyl-3-phenylpropyl)- dodecamide (HPA-12) were synthesized as previously described.
Two donor and acceptor liposomes were prepared one acts as donor liposome (NBD-Cer or MCC-Cer) and the other as acceptor liposome (NR-Cer or NBD-Cer). The donor and acceptor liposomes were mixed in proper percentage for establishing two fluorescence resonance energy transfer (FRET) systems (MCC/NBD-ceramide system, or NBD/ NR-ceramide system). The stock solutions of the phospholipids and the fluorescently-labeled ceramide were prepared by dissolving in a mixture of methanol:chloroform (1:1). The liposomes were prepared by mixing […] phosphatidylcholine, 333 µmol phosphatidylethanolamine, and […] fluorescently-labeled ceramide (4:1:1 molar ratio) in siliconized Eppendorf tubes. The mixture was dried under argon stream to yield a waxy lipid film. The obtained waxy residue was hydrated with Tris.HCl buffer (1mL, 2 mM, pH 7.4) to a final concentration of 2 mM and the resulting mixture was vortexed for 1 min. The lipid mixture was subjected to 6 freeze-thawing cycles with liquid nitrogen and shaking incubator at 37 °C. Afterwards, the lipid suspension was sonicated with a Cup-Horn sonicator for 20 sec, followed by vigorous shaking on vortex for 1 min. Finally, the lipid mixture was extruded with a mini extruder (Avanti polar lipids) by forcing the suspension through two polycarbonate filters with 100 nm pore size for 13 times to afford a solution of liposome type.
2.4 Development of high throughput screening CERT-assay (96-well plate format) The assay was performed in non-binding clear-bottom 96-well microplate (Greiner Bio-One). […] The plate was placed in the microplate reader (LABTECH) at 30°C with shaking. The fluorescence was measured from the bottom over 1h (number of cycles 35, delay 70 sec) with excitation filter 485 nm and emission filter 640 nm (for NBD-Cer/NR-ceramide FRET system) or excitation filter 347 nm and emission filter 536 nm (for Coumarin (MMC-Cer), NBD-ceramide (NBD-Cer) FRET system). The transfer efficiency was calculated using the formula: Ix = I0(À1-X)/I(À2-Y), where À1 is the average of the florescence of the control of liposome mixture in Tris.HCl buffer, X is the average of the fluorescence of the buffer alone, À2 is the fluorescence average of the assay mixture, Y is the fluorescence average of the CERT aliquot with […]

activity in the transfer assay | Structure (SMILES)
high activity | CCCC(=O)OCOC(=O)C1=C(C)NC(C)=C(C(=O)OC)C1c1cccc(Cl)c1Cl (stereo not shown) [6B11, Clevidipine butyrate]
high activity | O=C(NC1CCN(CCCCC2(C(=O)NCC(F)(F)F)c3ccccc3-c3ccccc32)CC1)c1ccccc1-c1ccc(C(F)(F)F)cc1 [8E8, lomitapide]
weak dose‐response | CC1=NN(c2ccc(C)c(C)c2)C(=O)/C1=N\Nc1cccc(-c2cccc(C(=O)O)c2)c1O [17C9, Eltrombopag]

Structure (SMILES) | activity in the transfer assay
Cc1cc(C2=NOC(c3cc(Cl)cc(Cl)c3)(C(F)(F)F)C2)ccc1C(=O)NCC(=O)NCC(F)(F)F (stereo not shown) [20D5, Fluralaner] | high activity

— paper PMC7756341, “Liposomal FRET Assay Identifies Potent Drug‐Like Inhibitors of the Ceramide Transport Protein (CERT)” (Chemistry (Weinheim an Der Bergstrasse, Germany), 2020)
